We go through one compound from patent US20180064125A1, “INHIBITION OF PATHOGENIC GROWTH ON PLANT MATERIALS USING LACTIC ACID PRODUCING MICROORGANISMS” (priority 2009, published 2018).

This test concerns E. coli O157:H7. Put plainly: 12 day shelf-life study of inoculated spinach rinsed with LAB, chlorine or multi-hurdle intervention at 7° C. Details: species or system Escherichia coli O157:H7. The conditions noted are these: 12 day shelf-life at 7° C., in words, P<0.0001.

Take `OCl` [chlorine, sodium hypochlorite]: the “Reductions in pathogen populations compared to control populations” value was “Significant reductions”.
